Molecules are shown by their SMILES. Several values for one entry are separate records, joined by “and”; a condition that tells them apart may be missing. Identical values can stand only once.

The record followed here is US12479803B2, “Antimalarial compounds” (UNIVERSITY OF CENTRAL FLORIDA RESEARCH FOUNDATION, INC., priority 2019, dated 2025).

The first experiment has as its system CQ-resistant (Dd2) strain of P. falciparum. The experiment can be described thus: In vitro antiplasmodial activity, SYBR Green I fluorescence assay, Dd2 strain. The experiment is classed as cell-based, Plasmodium falciparum. The following applies: CQ-resistant (Dd2) strain, 72 h incubation; read-out: EC50 (nmol). As to the method:
A set of 104 new styrylquinoline derivatives were synthesized and investigated for in vitro their antimalarial activity. To test antimalarial activities, different dilutions of compounds were added to P. falciparum culture. Following 72 h incubation at 37° C. in an atmosphere containing 5% CO2, the inhibitory property of the compounds were determined by SYBR Green I fluorescence assay. Meanwhile, SARs studies were conducted.
The SAR studies were focused on improving the in vitro activity of 2-arylvinylquinolines against the CQ-resistant Pf Dd2 strain.
Consider `COc1ccc2nc(C)cc(NCCN(C)C)c2c1` [Compound 6a], for which the EC50 came out at 5520 ± 571 nM. The same measure, in the same setting: for `Cc1cc(NCCN(C)C)c2cc(Cl)ccc2n1` [Compound 6c] the value was 732 ± 107 nM. On the same count and under the same terms, for `Cc1cc(NCCCN(C)C)c2cc(Cl)ccc2n1` [Compound 6e] the value was 1240 ± 139 nM; for `COc1ccc(/C=C/c2cc(NCCN(C)C)c3cc(OC)ccc3n2)cc1` [Compound 12], 43.6 ± 2 nM. `COc1ccc2nc(/C=C/c3ccc(OC)c(OC)c3)cc(NCCN(C)C)c2c1` [Compound 13]: the EC50 came out at 187 ± 13.6 nM.

For the compound `COc1ccc2nc(/C=C/c3cc(OC)c(OC)c(OC)c3)cc(NCCN(C)C)c2c1` [Compound 14], the EC50 was determined as 74.2 ± 8.8 nM.

For `COc1ccc2nc(/C=C/c3ccc(F)cc3)cc(NCCN(C)C)c2c1` [Compound 15], the EC50 stood at 32.9 ± 5.1 nM. Same read-out and setting: for `CN(C)CCNc1cc(/C=C/c2ccc([N+](=O)[O-])cc2)nc2ccc(F)cc12` [Compound 17] the value was 30.9 ± 5.9 nM. On the same count and under the same terms, for `CN(C)CCNc1cc(/C=C/c2ccc(F)cc2)nc2ccc(F)cc12` [Compound 18] the value was 30.9 ± 5.5 nM; for `COc1ccc(/C=C/c2cc(NCCN(C)C)c3cc(F)ccc3n2)cc1` [Compound 19], 37.8 ± 8.7 nM; for `COc1ccc(/C=C/c2cc(NCCN(C)C)c3cc(F)ccc3n2)cc1OC` [Compound 20], 41.1 ± 0.6 nM.

In the case of `CN(C)CCNc1cc(/C=C/c2ccccc2)nc2ccc(Cl)cc12` [Compound 22], the 50% effective concentration (EC50) was determined as 22.4 ± 2 nM. On to `CN(C)CCNc1cc(/C=C/c2ccc([N+](=O)[O-])cc2)nc2ccc(Cl)cc12` [Compound 23], for which the EC50 was found to be 28.7 ± 3.8 nM.

Consider `COc1ccc(/C=C/c2cc(NCCN(C)C)c3cc(Cl)ccc3n2)cc1` [Compound 25], for which the EC50 was 34.8 ± 7.9 nM. Still for that read-out and setting: for `COc1ccc(/C=C/c2cc(NCCN(C)C)c3cc(Cl)ccc3n2)cc1OC` [Compound 26] the value was 38.9 ± 7.8 nM. As for `COc1cc(/C=C/c2cc(NCCN(C)C)c3cc(Cl)ccc3n2)cc(OC)c1OC` [Compound 27], the EC50 was determined as 44.4 ± 3.6 nM.

On to `CN(C)CCNc1cc(/C=C/c2ccc(N(C)C)cc2)nc2ccc(Cl)cc12` [Compound 28], for which the EC50 worked out at 88.3 ± 2.2 nM. Take `CN(C)CCNc1cc(/C=C/c2ccc([N+](=O)[O-])cc2)nc2ccccc12` [Compound 33]: the EC50 was found to be 47.9 ± 9.5 nM.

Take `CN(C)CCNc1cc(/C=C/c2ccc(F)cc2)nc2ccccc12` [Compound 34]: the concentration for a half-maximal effect (EC50) is 25.5 ± 7.1 nM.

For the compound `CN(C)CCCCNc1cc(/C=C/c2ccccc2)nc2ccc(Cl)cc12` [Compound 35], the EC50 amounted to 68 ± 9 nM.

`CN(C)CCCCNc1cc(/C=C/c2ccc([N+](=O)[O-])cc2)nc2ccc(Cl)cc12` [Compound 36]: the half-maximal effective concentration (EC50) was 52.5 ± 2 nM. In the case of `CN(C)CCCCNc1cc(/C=C/c2ccc(F)cc2)nc2ccc(Cl)cc12` [Compound 37], the EC50 turned out to be 51.2 ± 1.6 nM. On the same count and under the same terms, for `COc1ccc2nc(/C=C/c3cccs3)cc(NCCN(C)C)c2c1` [Compound 40] the value was 80 ± 7 nM; for `COc1ccc2nc(/C=C/c3cccnc3)cc(NCCN(C)C)c2c1` [Compound 43], 71 ± 27.5 nM.

Take `CN(C)CCNc1cc(/C=C/c2cccs2)nc2ccc(F)cc12` [Compound 45]: the EC50 came out at 111 ± 29.1 nM. In the case of `CN(C)CCNc1cc(/C=C/c2ccncc2)nc2ccc(F)cc12` [Compound 46], the 50% effective concentration (EC50) was found to be 36.1 ± 2.1 nM. On the same count and under the same terms, for `CN(C)CCNc1cc(/C=C/c2cccs2)nc2ccc(Cl)cc12` [Compound 48] the value was 29.7 ± 4.6 nM; for `CN(C)CCNc1cc(/C=C/c2nccs2)nc2ccc(Cl)cc12` [Compound 49], 240 ± 30.6 nM. Still for that read-out and setting: for `CN(C)CCNc1cc(/C=C/c2ccccn2)nc2ccc(Cl)cc12` [Compound 51] the value was 67.5 ± 1.9 nM. On the same count and under the same terms, for `CN(C)CCNc1cc(/C=C/c2cccnc2)nc2ccc(Cl)cc12` [Compound 52] the value was 33.6 ± 5.8 nM; for `CN(C)CCNc1cc(/C=C/c2cccc3ccccc23)nc2ccc(Cl)cc12` [Compound 56], 373 ± 19 nM; for `CN(C)CCNc1cc(/C=C/C2CCCCC2)nc2ccc(Cl)cc12` [Compound 57], 394 ± 40 nM. Turning to `Fc1ccc(/C=C/c2cc(N3CCOCC3)c3cc(Cl)ccc3n2)cc1` [Compound 62], the EC50 turned out to be 6750 ± 1080 nM. On the same count and under the same terms, for `Clc1ccc2nc(/C=C/c3ccncc3)cc(N3CCOCC3)c2c1` [Compound 63] the value was 3590 ± 870 nM. The same measure, in the same setting: for `N#Cc1ccc(/C=C/c2cc(N3CCOCC3)c3cc(Cl)ccc3n2)cc1` [Compound 64] the value was 1010 ± 84.2 nM; for `Fc1ccc(/C=C/c2cc(N3CCCC3)c3cc(Cl)ccc3n2)cc1` [Compound 65], 428 ± 15 nM. Take `Clc1ccc2nc(/C=C/c3ccncc3)cc(N3CCCC3)c2c1` [Compound 66]: the concentration giving a half-maximal response (EC50) amounted to 1180 ± 175 nM. Same read-out and setting: for `Fc1ccc(/C=C/c2cc(N3CCN(c4ccccn4)CC3)c3cc(Cl)ccc3n2)cc1` [Compound 67] the value was 3300 ± 60 nM. Same read-out and setting: for `Clc1ccc2nc(/C=C/c3ccncc3)cc(N3CCN(c4ccccn4)CC3)c2c1` [Compound 68] the value was 2570 ± 610 nM; for `Fc1ccc(/C=C/c2cc(Nc3ccc(N4CCCCC4)cc3)c3cc(Cl)ccc3n2)cc1` [Compound 69], 667 ± 117 nM; for `Clc1ccc2nc(/C=C/c3ccncc3)cc(Nc3ccc(N4CCCCC4)cc3)c2c1` [Compound 70], 793 ± 81.3 nM. Same read-out and setting: for `Fc1ccc(/C=C/c2cc(N3CCC(N4CCCCC4)CC3)c3cc(Cl)ccc3n2)cc1` [Compound 71] the value was 487 ± 69.5 nM. For the compound `Clc1ccc2nc(/C=C/c3ccncc3)cc(NCCN3CCOCC3)c2c1` [Compound 82], the EC50 came out at 137 ± 14.6 nM. The same measure, in the same setting: for `Fc1ccc(/C=C/c2cc(NCCN3CCCC3)c3cc(Cl)ccc3n2)cc1` [Compound 83] the value was 92.3 ± 5.8 nM.

In the case of `Clc1ccc2nc(/C=C/c3ccccc3)cc(NCCN3CCCC3)c2c1` [Compound 84], the EC50 came out at 107 ± 8.4 nM.

Take `Clc1ccc2nc(/C=C/c3ccncc3)cc(NCCN3CCCC3)c2c1` [Compound 85]: the EC50 is 67.7 ± 11.6 nM. Turning to `CN1CCN(CCNc2cc(/C=C/c3ccncc3)nc3ccc(Cl)cc23)CC1` [Compound 87], the EC50 came to 53.3 ± 8.5 nM.

In the case of `Fc1ccc(/C=C/c2cc(NCCCN3CCOCC3)c3cc(Cl)ccc3n2)cc1` [Compound 90], the 50% effective concentration (EC50) is 40.8 ± 5.6 nM.

Regarding `FC(F)(F)c1ccc(/C=C/c2cc(NCCCN3CCOCC3)c3cc(Cl)ccc3n2)cc1` [Compound 91], the EC50 was found to be 84.8 ± 6.3 nM. `CN1CCN(CCCCNc2cc(/C=C/c3ccccc3)nc3ccc(Cl)cc23)CC1` [Compound 94]: the EC50 came out at 58.9 ± 8.8 nM. In the case of `CN1CCN(CCCCNc2cc(/C=C/c3ccc(F)cc3)nc3ccc(Cl)cc23)CC1` [Compound 95], the EC50 was determined as 43 ± 7.5 nM.

Turning to `FC(F)(F)c1cccc(/C=C/c2cc(NCCCCN3CCOCC3)c3cc(Cl)ccc3n2)c1` [Compound 100], the EC50 came to 33.9 ± 1.4 nM. In the case of `FC(F)(F)Oc1ccc(/C=C/c2cc(NCCCCN3CCOCC3)c3cc(Cl)ccc3n2)cc1` [Compound 101], the EC50 is 56.6 ± 7.6 nM. As to `FC(F)(F)c1cc(/C=C/c2cc(NCCCCN3CCOCC3)c3cc(Cl)ccc3n2)cc(C(F)(F)F)c1` [Compound 102], the EC50 turned out to be 108 ± 8 nM.

As for `Fc1cc(F)cc(/C=C/c2cc(NCCCCN3CCOCC3)c3cc(Cl)ccc3n2)c1` [Compound 103], the EC50 turned out to be 185 ± 34.1 nM.

As to `Fc1ccc(/C=C/c2cc(NCCCCN3CCOCC3)c3cc(Cl)ccc3n2)c(F)c1` [Compound 104], the EC50 amounted to 72.6 ± 17.2 nM. For the compound `Fc1cc(F)c(F)c(/C=C/c2cc(NCCCCN3CCOCC3)c3cc(Cl)ccc3n2)c1` [Compound 106], the EC50 amounted to 588 ± 256 nM.

The same experiment, now with this note: Dd2 strain.
Consider `COc1ccc2nc(C)cc(NCCN(C)C)c2c1` [Compound 6a], for which the EC50 entry was “inactive”. As to `Cc1cc(NCCN(C)C)c2cc(Cl)ccc2n1` [Compound 6c], the EC50 result is “inactive”. Regarding `Cc1cc(NCCCN(C)C)c2cc(Cl)ccc2n1` [Compound 6e], the EC50 entry is “inactive”.

Staying with this experiment, now noted: Dd2 strain; read-out: EC50.
On to `COc1ccc2nc(/C=C/c3ccccc3)cc(NCCN(C)C)c2c1` [Compound 8], for which the EC50 is 41.2 ± 5.3 nM. Same read-out and setting: for `COc1ccc2nc(/C=C/c3ccc([N+](=O)[O-])cc3)cc(NCCN(C)C)c2c1` [Compound 9] the value was 28.6 ± 0.9 nM; for `COc1ccc2nc(/C=C/c3ccccc3[N+](=O)[O-])cc(NCCN(C)C)c2c1` [Compound 10], 56.3 ± 8.1 nM; for `COc1ccc2nc(/C=C/c3cccc([N+](=O)[O-])c3)cc(NCCN(C)C)c2c1` [Compound 11], 49.5 ± 4 nM. For the compound `CN(C)CCNc1cc(/C=C/c2ccccc2)nc2ccc(F)cc12` [Compound 16], the EC50 stood at 21 ± 2.1 nM.

In the case of `COc1cc(/C=C/c2cc(NCCN(C)C)c3cc(F)ccc3n2)cc(OC)c1OC` [Compound 21], the EC50 amounted to 38.6 ± 1.8 nM. On the same count and under the same terms, for `CN(C)CCNc1cc(/C=C/c2ccccc2)nc2ccccc12` [Compound 32] the value was 80.7 ± 22.4 nM. Still for that read-out and setting: for `COc1ccc2nc(/C=C/c3ccco3)cc(NCCN(C)C)c2c1` [Compound 39] the value was 88.7 ± 2.3 nM; for `COc1ccc2nc(/C=C/c3ccncc3)cc(NCCN(C)C)c2c1` [Compound 41], 33.6 nM and 38.8 nM; for `COc1ccc2nc(/C=C/c3ccccn3)cc(NCCN(C)C)c2c1` [Compound 42], 1030 ± 233 nM. The same measure, in the same setting: for `CN(C)CCNc1cc(/C=C/c2ccco2)nc2ccc(F)cc12` [Compound 44] the value was 82.6 ± 9.4 nM. With `CN(C)CCNc1cc(/C=C/c2ccco2)nc2ccc(Cl)cc12` [Compound 47], the EC50 turned out to be 37 ± 4.3 nM. Turning to `CN(C)CCNc1cc(/C=C/c2cncnc2)nc2ccc(Cl)cc12` [Compound 53], the concentration for a half-maximal effect (EC50) came out at 155 ± 11.6 nM. Regarding `CN(C)CCNc1cc(/C=C/c2cc3ccccc3[nH]2)nc2ccc(Cl)cc12` [Compound 54], the EC50 was 95.9 ± 6.7 nM. Same read-out and setting: for `COc1ccc2nc(/C=C/c3cc(NCCN(C)C)c4cc(Cl)ccc4n3)ccc2c1` [Compound 55] the value was 281 ± 40.3 nM; for `COc1ccc2nc(CCc3ccncc3)cc(NCCN(C)C)c2c1` [Compound 58], 709 ± 58.2 nM; for `CN(C)CCNc1cc(CCc2ccncc2)nc2ccc(Cl)cc12` [Compound 59], 259 ± 15.5 nM. For `N#Cc1ccc(/C=C/c2cc(N3CCOCC3)c3cc(Cl)ccc3n2)cc1` [Compound 64], the EC50 is > 1000 nM.

On to `FC(F)(F)c1ccccc1/C=C/c1cc(NCCCCN2CCOCC2)c2cc(Cl)ccc2n1` [Compound 99], for which the half-maximal effective concentration (EC50) was 104 ± 7.2 nM.

Broadly, the EC50 is the midpoint of the concentration-response curve.
